Results reported in ChEMBL document CHEMBL1201862, “PubChem BioAssay data set” (2004).
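Tested at 5 concentrations; 48 h exposure; 96-well plates; endpoints linearly interpolated, else capped at highest concentration. Here, GI50 denotes the concentration required for 50% inhibition of growth.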 Activity calls are given as the source filed them. No stated cut-off is given here; in the data, active = GI50 up to about 1.1 µM and inactive = higher.

Tests used:
Test in all cases: DTP human tumour cell line panel, 48 h
[1] = tested on: RXF 393
[2] = tested on: SF-295
[3] = tested on: HCT-116
[4] = tested on: NCI/ADR-RES
[5] = tested on: OVCAR-3
[6] = tested on: LOX IMVI
[7] = tested on: M14
[8] = tested on: SR
[9] = tested on: A549
[10] = tested on: SK-MEL-2
[11] = tested on: KM12
[12] = tested on: Hs-578T
[13] = tested on: 786-0
[14] = tested on: UO-31
[15] = tested on: T47D
[16] = tested on: SW-620
[17] = tested on: RPMI-8226
[18] = tested on: MDA-N
[19] = tested on: U-251
[20] = tested on: COLO 205
[21] = tested on: MDA-MB-231
[22] = tested on: UACC-62
[23] = tested on: PC-3
[24] = tested on: A498
[25] = tested on: SF-268
[26] = tested on: SNB-75
[27] = tested on: K562
[28] = tested on: IGROV-1
[29] = tested on: DU-145
[30] = tested on: HT-29
[31] = tested on: HOP-92
[32] = tested on: TK-10
[33] = tested on: OVCAR-5
[34] = tested on: CAKI-1
[35] = tested on: SK-MEL-28
[36] = tested on: OVCAR-8
[37] = tested on: UACC-257
[38] = tested on: CCRF-CEM
[39] = tested on: MDA-MB-435
[40] = tested on: NCI-H226
[41] = tested on: NCI-H23
[42] = tested on: SNB-19
[43] = tested on: SK-MEL-5
[44] = tested on: HOP-62
[45] = tested on: SN12C
[46] = tested on: ACHN
[47] = tested on: MOLT-4
[48] = tested on: SF-539
[49] = tested on: NCI-H460
[50] = tested on: HCC 2998
[51] = tested on: OVCAR-4
[52] = tested on: SK-OV-3
[53] = tested on: Malme-3M
[54] = tested on: NCI-H522
[55] = tested on: HCT-15
[56] = tested on: MCF7

CCOC(=O)Cn1c2ccc(Br)cc2c2nc3ccccc3nc21
GI50 [1]: > 100 µM (inactive)
GI50 [2]: > 100 µM (inactive)
GI50 [3]: > 100 µM (inactive)
GI50 [4]: > 100 µM (inactive)
GI50 [5]: > 100 µM (inactive)
GI50 [6]: > 100 µM (inactive)
GI50 [7]: > 100 µM (inactive)
GI50 [8]: 88.7 µM (inactive)
GI50 [9]: > 100 µM (inactive)
GI50 [10]: > 100 µM (inactive)
GI50 [11]: > 100 µM (inactive)
GI50 [12]: 93.3 µM (inactive)
GI50 [13]: > 100 µM (inactive)
GI50 [14]: > 100 µM (inactive)
GI50 [15]: > 100 µM (inactive)
GI50 [16]: > 100 µM (inactive)
GI50 [17]: > 100 µM (inactive)
GI50 [18]: > 100 µM (inactive)
GI50 [19]: > 100 µM (inactive)
GI50 [20]: > 100 µM (inactive)
GI50 [21]: > 100 µM (inactive)
GI50 [22]: > 100 µM (inactive)
GI50 [23]: > 100 µM (inactive)
GI50 [24]: > 100 µM (inactive)
GI50 [25]: > 100 µM (inactive)
GI50 [26]: > 100 µM (inactive)
GI50 [27]: > 100 µM (inactive)
GI50 [28]: 55.7 µM (inactive)
GI50 [29]: > 100 µM (inactive)
GI50 [30]: > 100 µM (inactive)
GI50 [31]: > 100 µM (inactive)
GI50 [32]: > 100 µM (inactive)
GI50 [33]: > 100 µM (inactive)
GI50 [34]: > 100 µM (inactive)
GI50 [35]: > 100 µM (inactive)
GI50 [36]: > 100 µM (inactive)
GI50 [37]: > 100 µM (inactive)
GI50 [38]: > 100 µM (inactive)
GI50 [39]: > 100 µM (inactive)
GI50 [40]: > 100 µM (inactive)
GI50 [41]: > 100 µM (inactive)
GI50 [42]: > 100 µM (inactive)
GI50 [43]: > 100 µM (inactive)
GI50 [44]: > 100 µM (inactive)
GI50 [45]: > 100 µM (inactive)
GI50 [46]: > 100 µM (inactive)
GI50 [47]: > 100 µM (inactive)

OCCNC1=Nc2ccc(Cl)cc2C(=S)N2CSC[C@@H]12
GI50 [1]: > 100 µM (inactive)
GI50 [2]: > 100 µM (inactive)
GI50 [3]: > 100 µM (inactive)
GI50 [48]: > 100 µM (inactive)
GI50 [4]: > 100 µM (inactive)
GI50 [5]: > 100 µM (inactive)
GI50 [7]: > 100 µM (inactive)
GI50 [8]: > 100 µM (inactive)
GI50 [9]: > 100 µM (inactive)
GI50 [10]: > 100 µM (inactive)
GI50 [11]: > 100 µM (inactive)
GI50 [13]: > 100 µM (inactive)
GI50 [14]: > 100 µM (inactive)
GI50 [15]: > 100 µM (inactive)
GI50 [16]: > 100 µM (inactive)
GI50 [17]: > 100 µM (inactive)
GI50 [19]: > 100 µM (inactive)
GI50 [20]: > 100 µM (inactive)
GI50 [21]: > 100 µM (inactive)
GI50 [22]: > 100 µM (inactive)
GI50 [23]: > 100 µM (inactive)
GI50 [24]: > 100 µM (inactive)
GI50 [25]: > 100 µM (inactive)
GI50 [49]: > 100 µM (inactive)
GI50 [50]: > 100 µM (inactive)
GI50 [51]: > 100 µM (inactive)
GI50 [27]: > 100 µM (inactive)
GI50 [29]: > 100 µM (inactive)
GI50 [30]: > 100 µM (inactive)
GI50 [31]: > 100 µM (inactive)
GI50 [33]: > 100 µM (inactive)
GI50 [34]: > 100 µM (inactive)
GI50 [35]: > 100 µM (inactive)
GI50 [52]: > 100 µM (inactive)
GI50 [36]: > 100 µM (inactive)
GI50 [53]: > 100 µM (inactive)
GI50 [54]: > 100 µM (inactive)
GI50 [39]: > 100 µM (inactive)
GI50 [55]: > 100 µM
GI50 [56]: > 100 µM (inactive)
GI50 [41]: > 100 µM (inactive)
GI50 [42]: > 100 µM (inactive)
GI50 [43]: > 100 µM (inactive)
GI50 [44]: > 100 µM (inactive)
GI50 [45]: > 100 µM (inactive)
GI50 [46]: > 100 µM (inactive)
GI50 [47]: > 100 µM (inactive)
